Experiment [1] addresses Serine/threonine-protein kinase mTOR (Homo sapiens, UniProt P42345). The experiment in a line: Inhibition of mTOR.
Experiment [2] in a line: Selectivity index, ratio of IC50 for PI3Kalpha to IC50 for mTOR.
Experiment [3] concerns LNCaP. The experiment in a line: Cytotoxicity against human LNCAP cells. The format is functional, cell-based.
For experiment [4], the target named is Phosphatidylinositol 4,5-bisphosphate 3-kinase catalytic subunit alpha isoform (Homo sapiens, UniProt P42336). The experiment in a line: Inhibition of PI3Kalpha.
Phosphatidylinositol 4,5-bisphosphate 3-kinase catalytic subunit alpha isoform, sequence (P42336 whole entry, canonical isoform): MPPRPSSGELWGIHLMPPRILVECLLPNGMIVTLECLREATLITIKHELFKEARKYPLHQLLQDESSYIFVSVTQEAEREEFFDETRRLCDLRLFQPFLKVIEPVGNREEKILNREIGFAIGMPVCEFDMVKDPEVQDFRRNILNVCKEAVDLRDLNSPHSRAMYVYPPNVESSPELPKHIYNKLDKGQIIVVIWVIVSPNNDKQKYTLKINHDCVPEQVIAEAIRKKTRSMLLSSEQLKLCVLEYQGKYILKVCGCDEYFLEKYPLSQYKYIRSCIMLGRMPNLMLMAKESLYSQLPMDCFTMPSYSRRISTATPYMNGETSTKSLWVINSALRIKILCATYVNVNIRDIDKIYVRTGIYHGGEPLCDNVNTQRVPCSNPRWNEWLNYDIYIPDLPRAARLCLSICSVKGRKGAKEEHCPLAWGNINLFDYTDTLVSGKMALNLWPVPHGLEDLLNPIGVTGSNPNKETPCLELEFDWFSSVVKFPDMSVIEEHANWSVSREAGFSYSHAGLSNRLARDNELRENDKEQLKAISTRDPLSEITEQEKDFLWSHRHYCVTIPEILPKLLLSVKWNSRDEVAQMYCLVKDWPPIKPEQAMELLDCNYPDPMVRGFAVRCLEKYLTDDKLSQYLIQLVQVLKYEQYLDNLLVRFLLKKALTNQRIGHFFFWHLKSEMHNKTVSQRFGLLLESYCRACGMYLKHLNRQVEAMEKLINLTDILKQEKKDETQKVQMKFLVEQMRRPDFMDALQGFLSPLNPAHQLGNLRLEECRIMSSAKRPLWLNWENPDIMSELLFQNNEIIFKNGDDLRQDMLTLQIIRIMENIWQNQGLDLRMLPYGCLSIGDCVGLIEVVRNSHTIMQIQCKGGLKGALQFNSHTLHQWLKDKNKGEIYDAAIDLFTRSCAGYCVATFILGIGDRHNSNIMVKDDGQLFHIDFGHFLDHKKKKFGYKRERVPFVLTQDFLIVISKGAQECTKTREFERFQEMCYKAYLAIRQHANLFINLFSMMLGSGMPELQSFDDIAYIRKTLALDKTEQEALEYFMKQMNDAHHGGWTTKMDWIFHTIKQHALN

By IC50 is commonly meant the point on the concentration scale where inhibition reaches its midpoint. Low values mean greater potency, high ones weaker potency. Regarding `CNC(=O)Nc1ccc(-c2nc(N3CC4CCC(C3)O4)c3sccc3n2)cc1`, the IC50 is 0.9 nM in experiment [1] and 85 nM in experiment [3]. Further, the Ratio IC50 in experiment [2] was found to be 492.

On to `O=C(NCCF)Nc1ccc(-c2nc(N3CC4CCC(C3)O4)c3sccc3n2)cc1`, for which the concentration for half-maximal inhibition (IC50) in experiment [1] was 0.7 nM; in experiment [3] it was 87 nM. For the same compound, the Ratio IC50 in experiment [2] is 1110.

As for `CN1CCN(Cc2cc3nc(-c4ccc(NC(=O)Nc5ccncc5)cc4)nc(N4CC5CCC(C4)O5)c3s2)CC1`, the Ratio IC50 in experiment [2] was 23. Besides, the IC50 in experiment [3] turned out to be 200 nM.

For the compound `Nc1ccc(-c2nc(N3CC4CCC(C3)O4)c3sccc3n2)cn1`, the IC50 is 35 nM in experiment [1] and 1250 nM in experiment [3]. The Ratio IC50 in experiment [2] turned out to be 51.

In the case of `O=C(Nc1ccncc1)Nc1ccc(-c2nc(N3CC4CCC(C3)O4)c3sccc3n2)cc1`, the values for the IC50 in experiment [1] and in experiment [3] were 0.44 nM and 10 nM, respectively. Besides, in experiment [2], the Ratio IC50 is 182.

Regarding `Oc1ccc(-c2nc(N3CC4CCC(C3)O4)c3sccc3n2)cc1`, the half-maximal inhibitory concentration (IC50) in experiment [1] was 32 nM. That is a double-digit nanomolar value.

In the case of `O=C(Nc1ccc(-c2nc(N3CC4CCC(C3)O4)c3sccc3n2)cc1)NC1CC1`, the concentration for half-maximal inhibition (IC50) in experiment [1] was 0.68 nM; in experiment [3], 40 nM. Also, the Ratio IC50 in experiment [2] turned out to be 2010.

For the compound `COC(=O)Nc1ccc(-c2nc(N3CC4CCC(C3)O4)c3sccc3n2)cc1`, the values for the 50% inhibitory concentration (IC50) in experiment [1] and in experiment [3] were 11 nM and 1850 nM, respectively. For the same compound, the Ratio IC50 in experiment [2] stood at 549.

The compound `CS(=O)(=O)N1CCN(Cc2cc3nc(-c4ccc(NC(=O)Nc5cccnc5)cc4)nc(N4CC5CCC(C4)O5)c3s2)CC1` displayed a concentration for half-maximal inhibition (IC50) in experiment [1] of 0.6 nM.

As to `CCNC(=O)Nc1ccc(-c2nc(N3CC4CCC(C3)O4)c3sccc3n2)cc1`, 0.7 nM corresponded to half-maximal inhibition in experiment [1] (IC50).

Consider `O=C(Nc1ccc(-c2nc(N3CC4CCC(C3)O4)c3sccc3n2)cc1)Nc1cccnc1`, for which the figures for the half-maximal inhibitory concentration (IC50) in experiment [1] and in experiment [3] were 0.29 nM and 27 nM, respectively. Moreover, in experiment [2], the Ratio IC50 came to 410.

`CNC(=O)Nc1ccc(-c2nc(N3CC4CCC(C3)O4)c3sc(CN4CCN(C)CC4)cc3n2)cc1` displayed an IC50 in experiment [1] of 20 nM.

With `Oc1cccc(-c2nc(N3CCOCC3)c3sccc3n2)c1`, the IC50 was found to be 49 nM in experiment [1], 41 nM in experiment [4] and 1300 nM in experiment [3]. The Ratio IC50 in experiment [2] came to 0.9.

For `CC(=O)Nc1ccc(-c2nc(N3CC4CCC(C3)O4)c3sccc3n2)cc1`, the IC50 in experiment [1] turned out to be 26.5 nM; in experiment [3] it was 1700 nM. Also, in experiment [2], the Ratio IC50 stood at 165.

For the compound `CNC(=O)Nc1ccc(-c2nc(N3CC4CCC(C3)O4)c3sc(CN4CCN(S(C)(=O)=O)CC4)cc3n2)cc1`, the Ratio IC50 in experiment [2] came out at 33. This compound also showed an IC50 in experiment [3] of 120 nM.

In the case of `O=C(Nc1ccccc1)Nc1ccc(-c2nc(N3CC4CCC(C3)O4)c3sccc3n2)cc1`, the IC50 in experiment [1] is 1.25 nM.

On to `c1cc2cc(-c3nc(N4CC5CCC(C4)O5)c4sccc4n3)ccc2[nH]1`, for which, in experiment [2], the Ratio IC50 was 392. Also, in experiment [3], half-maximal inhibition (IC50) required 1350 nM.

As for `CS(=O)(=O)N1CCN(Cc2cc3nc(-c4ccc(NC(=O)NC5CC5)cc4)nc(N4CC5CCC(C4)O5)c3s2)CC1`, the IC50 came to 1 nM in experiment [1] and 32 nM in experiment [3]. Also, the Ratio IC50 in experiment [2] stood at 176.

For `Oc1cccc(-c2nc(N3CC4CCC(C3)O4)c3sccc3n2)c1`, in experiment [1], the IC50 worked out at 58 nM. In other words, the double-digit nanomolar range.

As for `CN1CCN(Cc2cc3nc(-c4ccc(NC(=O)Nc5cccnc5)cc4)nc(N4CC5CCC(C4)O5)c3s2)CC1`, the Ratio IC50 in experiment [2] worked out at 31. In addition, in experiment [3], the concentration for half-maximal inhibition (IC50) is 148 nM.

Consider `Nc1ncc(-c2nc(N3CC4CCC(C3)O4)c3sccc3n2)cn1`, for which the IC50 in experiment [1] stood at 57 nM; in experiment [3], 1200 nM. The Ratio IC50 in experiment [2] was found to be 4.4.

`Nc1ncc(-c2nc(N3CCOCC3)c3sccc3n2)cn1`: the results for the 50% inhibitory concentration (IC50) in experiment [1], in experiment [4] and in experiment [3] were 61 nM, 8.5 nM and 680 nM, respectively. Also, the Ratio IC50 in experiment [2] was 0.14.

As for `CS(=O)(=O)N1CCN(Cc2cc3nc(-c4ccc(NC(=O)Nc5ccncc5)cc4)nc(N4CC5CCC(C4)O5)c3s2)CC1`, the IC50 in experiment [4] came out at 8.3 nM; in experiment [3] it was 120 nM. Besides, the Ratio IC50 in experiment [2] stood at 19.

In the case of `CN1CCN(Cc2cc3nc(-c4ccc(NC(=O)NC5CC5)cc4)nc(N4CC5CCC(C4)O5)c3s2)CC1`, the IC50 was 16 nM in experiment [1] and 400 nM in experiment [3]. Besides, the Ratio IC50 in experiment [2] was 56.

For the compound `O=C(NCCO)Nc1ccc(-c2nc(N3CC4CCC(C3)O4)c3sccc3n2)cc1`, in experiment [1], the half-inhibitory concentration (IC50) stood at 0.34 nM.

In experiment [4], `Nc1ccc(-c2nc(N3CC4CCC(C3)O4)c3sccc3n2)cc1` had an IC50 of over 10000 nM.

For the origin of these results see ChEMBL document CHEMBL1153098, “Discovery of 2-arylthieno[3,2-d]pyrimidines containing 8-oxa-3-azabi-cyclo[3.2.1]octane in the 4-position as potent inhibitors of mTOR with selectivity over PI3K” (Bioorg Med Chem Lett, 2010).
